Assay results published in ChEMBL document CHEMBL3611986, “Reversal of P-gp and BCRP-mediated MDR by tariquidar derivatives” (Eur J Med Chem, 2015).
Active and inactive are the calls of the source. The rule behind the calls is not given here.

Assays:
HCT-116 = test: Cytotoxicity against human HCT116 cells assessed as cell viability after 48 hrs by MTT assay; type: cell-based; settings: HCT-116, 48 h
[1] = Cytotoxicity against human SW620/AD300 cells assessed as cell viability after 48 hrs by MTT assay; type: cell-based; settings: SW-620, 48 h
K562 [2] = test: Induction of UIC2 antibody binding to p-glycoprotein in human K562 cells at 0.5 uM preincubated for 10 mins followed by antibody addition measured after 45 mins by flow cytometry relative to tariquidar; type: cell-based
SW-620 [3] = test: Cytotoxicity against human SW620 cells assessed as cell viability after 48 hrs by MTT assay; type: cell-based; settings: SW-620, 48 h
[4] = target: T1, ATP-dependent translocase ABCB1 (Homo sapiens, UniProt P08183); test: Inhibition of p-glycoprotein-mediated doxorubicin efflux in human K562/p-gp cells at 1 uM after 1 hr by flow cytometry; type: cell-based
T1 sequence (P08183 whole entry): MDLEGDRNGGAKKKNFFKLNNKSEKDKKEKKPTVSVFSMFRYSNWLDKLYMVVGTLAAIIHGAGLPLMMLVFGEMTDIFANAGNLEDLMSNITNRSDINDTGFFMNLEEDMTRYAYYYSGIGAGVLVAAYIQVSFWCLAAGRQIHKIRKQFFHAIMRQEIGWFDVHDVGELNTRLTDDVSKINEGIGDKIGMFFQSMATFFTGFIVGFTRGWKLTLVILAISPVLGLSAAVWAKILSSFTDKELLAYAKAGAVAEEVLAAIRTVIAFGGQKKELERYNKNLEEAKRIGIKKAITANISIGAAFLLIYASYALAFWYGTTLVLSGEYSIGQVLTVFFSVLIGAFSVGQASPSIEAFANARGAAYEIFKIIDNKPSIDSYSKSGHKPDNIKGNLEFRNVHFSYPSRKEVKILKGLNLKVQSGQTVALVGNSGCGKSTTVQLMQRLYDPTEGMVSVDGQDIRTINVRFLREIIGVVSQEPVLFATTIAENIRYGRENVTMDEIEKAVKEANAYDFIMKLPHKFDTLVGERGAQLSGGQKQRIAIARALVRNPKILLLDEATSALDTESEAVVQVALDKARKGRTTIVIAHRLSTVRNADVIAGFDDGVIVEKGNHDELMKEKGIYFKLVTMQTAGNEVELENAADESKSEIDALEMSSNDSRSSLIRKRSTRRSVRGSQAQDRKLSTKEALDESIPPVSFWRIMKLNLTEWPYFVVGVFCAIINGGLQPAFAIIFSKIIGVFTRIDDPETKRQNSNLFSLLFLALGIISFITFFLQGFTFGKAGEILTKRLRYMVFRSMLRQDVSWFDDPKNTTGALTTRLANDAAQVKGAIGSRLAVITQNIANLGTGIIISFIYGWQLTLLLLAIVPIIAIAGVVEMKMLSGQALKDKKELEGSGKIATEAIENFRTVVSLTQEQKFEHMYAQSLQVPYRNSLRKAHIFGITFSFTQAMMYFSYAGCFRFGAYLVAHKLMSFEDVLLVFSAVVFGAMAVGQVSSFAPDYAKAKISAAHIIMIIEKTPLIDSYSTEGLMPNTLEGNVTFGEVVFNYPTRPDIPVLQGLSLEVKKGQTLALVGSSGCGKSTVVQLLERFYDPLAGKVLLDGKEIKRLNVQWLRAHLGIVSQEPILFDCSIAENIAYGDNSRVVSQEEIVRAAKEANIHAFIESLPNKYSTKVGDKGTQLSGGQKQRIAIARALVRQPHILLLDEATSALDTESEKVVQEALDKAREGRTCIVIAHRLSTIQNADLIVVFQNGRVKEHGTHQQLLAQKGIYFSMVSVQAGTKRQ

[5] = target: T2, Broad substrate specificity ATP-binding cassette transporter ABCG2 (Homo sapiens, UniProt Q9UNQ0); test: Induction of 5D3 antibody binding to BCRP in human K562 cells at 0.5 uM preincubated for 10 mins followed by antibody addition measured after 45 mins by flow cytometry relative to tariquidar; type: cell-based; settings: k562, 0.75 h
T2 sequence (Q9UNQ0 whole entry): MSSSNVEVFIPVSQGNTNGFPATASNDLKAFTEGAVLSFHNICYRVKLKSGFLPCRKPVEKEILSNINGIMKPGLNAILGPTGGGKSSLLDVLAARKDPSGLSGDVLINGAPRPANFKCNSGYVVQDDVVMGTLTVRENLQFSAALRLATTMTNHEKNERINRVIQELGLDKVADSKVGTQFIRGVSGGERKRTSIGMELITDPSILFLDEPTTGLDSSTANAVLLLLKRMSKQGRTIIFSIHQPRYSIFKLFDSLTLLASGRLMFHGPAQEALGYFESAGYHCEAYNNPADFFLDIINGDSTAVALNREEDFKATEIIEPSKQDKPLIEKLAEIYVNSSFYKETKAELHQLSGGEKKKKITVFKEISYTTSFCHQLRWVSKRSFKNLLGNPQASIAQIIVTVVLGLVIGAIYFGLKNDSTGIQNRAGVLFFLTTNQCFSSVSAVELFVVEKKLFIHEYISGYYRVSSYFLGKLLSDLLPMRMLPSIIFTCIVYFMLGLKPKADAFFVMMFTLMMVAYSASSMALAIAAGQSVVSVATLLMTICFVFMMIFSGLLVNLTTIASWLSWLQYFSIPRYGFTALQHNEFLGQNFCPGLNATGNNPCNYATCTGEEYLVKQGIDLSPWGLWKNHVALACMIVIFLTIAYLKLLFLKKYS

[6] = Cytotoxicity against human CCD-18Co cells assessed as cell viability after 48 hrs by MTT assay; type: cell-based
[7] = target: Multidrug resistance-associated protein 1 (Homo sapiens, UniProt P33527); test: Inhibition of MRP1 (unknown origin)-mediated calcein-AM efflux expressed in HEK293/MRP1 cells at 0.5 uM after 1 hr by flow cytometry; type: cell-based; settings: hek293/mrp1, 1 h
Sequence of Multidrug resistance-associated protein 1 (P33527 whole entry): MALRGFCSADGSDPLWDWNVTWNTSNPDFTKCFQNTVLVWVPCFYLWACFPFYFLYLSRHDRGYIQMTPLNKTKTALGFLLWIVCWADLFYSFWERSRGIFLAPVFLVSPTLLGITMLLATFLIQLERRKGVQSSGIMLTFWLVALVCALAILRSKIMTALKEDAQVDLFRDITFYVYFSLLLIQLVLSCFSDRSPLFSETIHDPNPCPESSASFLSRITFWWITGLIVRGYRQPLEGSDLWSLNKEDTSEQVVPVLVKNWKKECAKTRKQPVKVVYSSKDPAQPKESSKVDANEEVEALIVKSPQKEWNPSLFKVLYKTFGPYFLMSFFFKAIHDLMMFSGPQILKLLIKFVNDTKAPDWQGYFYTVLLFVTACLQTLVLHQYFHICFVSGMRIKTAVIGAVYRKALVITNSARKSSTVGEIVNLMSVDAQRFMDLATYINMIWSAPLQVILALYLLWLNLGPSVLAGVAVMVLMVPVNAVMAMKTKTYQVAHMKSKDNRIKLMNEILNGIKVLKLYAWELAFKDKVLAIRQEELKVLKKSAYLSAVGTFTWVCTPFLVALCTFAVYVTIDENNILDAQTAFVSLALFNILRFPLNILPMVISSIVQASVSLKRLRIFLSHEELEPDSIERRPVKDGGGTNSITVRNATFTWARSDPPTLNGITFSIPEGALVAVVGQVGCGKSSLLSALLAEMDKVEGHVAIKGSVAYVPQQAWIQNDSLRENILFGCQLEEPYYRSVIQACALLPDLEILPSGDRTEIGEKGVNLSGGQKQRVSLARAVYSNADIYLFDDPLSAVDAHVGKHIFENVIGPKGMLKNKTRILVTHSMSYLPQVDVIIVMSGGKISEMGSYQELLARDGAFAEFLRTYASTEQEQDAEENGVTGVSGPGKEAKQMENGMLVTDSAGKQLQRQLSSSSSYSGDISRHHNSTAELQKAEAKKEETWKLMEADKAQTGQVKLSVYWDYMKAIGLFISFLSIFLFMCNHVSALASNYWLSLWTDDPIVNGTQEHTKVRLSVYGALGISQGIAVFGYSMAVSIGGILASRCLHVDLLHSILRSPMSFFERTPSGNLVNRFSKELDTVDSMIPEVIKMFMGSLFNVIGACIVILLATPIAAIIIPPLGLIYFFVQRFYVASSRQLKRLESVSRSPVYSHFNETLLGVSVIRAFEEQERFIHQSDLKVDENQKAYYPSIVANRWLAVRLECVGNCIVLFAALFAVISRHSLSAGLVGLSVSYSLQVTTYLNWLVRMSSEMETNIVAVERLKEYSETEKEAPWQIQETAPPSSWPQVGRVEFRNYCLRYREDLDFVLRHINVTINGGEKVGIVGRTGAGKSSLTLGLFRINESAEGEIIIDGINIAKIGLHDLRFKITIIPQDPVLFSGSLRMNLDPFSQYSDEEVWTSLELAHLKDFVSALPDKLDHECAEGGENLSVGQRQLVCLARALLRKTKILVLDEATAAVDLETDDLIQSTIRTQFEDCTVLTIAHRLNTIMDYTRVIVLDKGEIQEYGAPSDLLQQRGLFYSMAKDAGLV

[8] = Cytotoxicity against human HFE cells assessed as cell viability after 72 hrs by MTT assay; type: cell-based
[9] = Cytotoxicity against human LCC6 cells expressing p-glycoprotein at 200 nM after 72 hrs by SRB assay; type: cell-based; settings: lcc6, 72 h, 0.2 µM
BCRP (ABCG2) = target: T3, BCRP (ABCG2) (Homo sapiens, UniProt Q9UNQ0); test: Inhibition of BCRP-mediated pheophorbide-A efflux in human K562/BCRP cells at 0.5 uM after 1 hr by flow cytometry; type: cell-based; settings: K562/BCRP cells, probe pheophorbide-A
T3 sequence (Q9UNQ0 whole entry): T2 sequence (Q9UNQ0 whole entry)

[10] = Potentiation of paclitaxel-induced cytotoxicity against human LCC6 cells at 200 nM after 72 hrs by SRB assay relative to control; type: functional
Hepatocyte = test: Cytotoxicity against rat hepatocytes assessed as cell viability after 72 hrs by MTT assay; type: cell-based; settings: for IC50: Rattus norvegicus, Hepatocyte; for Activity: rat, hepatocytes
[11] = target: T1, ATP-dependent translocase ABCB1; test: Inhibition of p-glycoprotein-mediated rhodamine-123 efflux in human K562/p-gp cells at 0.5 uM after 1 hr by flow cytometry relative to tariquidar; type: cell-based; settings: 1 h, 0.5 µM
[12] = target: T1, ATP-dependent translocase ABCB1; test: Inhibition of p-glycoprotein in human LCC6/MDR cells assessed as increase of paclitaxel-induced cytotoxicity at 200 nM after 72 hrs by SRB assay relative to control; type: cell-based; settings: 0.2 µM
[13] = target: T2, Broad substrate specificity ATP-binding cassette transporter ABCG2; test: Inhibition of BCRP in human MCF-7 FLV1000 cells assessed as increase of mitoxantrone-induced cytotoxicity at 200 nM after 72 hrs by SRB assay relative to control; type: cell-based; settings: 0.2 µM
[14] = target: T1, ATP-dependent translocase ABCB1; test: Inhibition of p-glycoprotein-mediated rhodamine-123 efflux in human K562/p-gp cells after 1 hr by flow cytometry; type: cell-based
K562 [15] = test: Effect on rhodamine-123 efflux in wild type human K562 cells at 0.5 uM after 1 hr by flow cytometry; type: ADME, cell-based; settings: k562, 1 h
MCF7 [16] = test: Potentiation of mitoxantrone-induced cytotoxicity against human MCF7 cells at 200 nM after 72 hrs by SRB assay relative to control; type: functional
[17] = Cytotoxicity against human MCF-7 FLV1000 cells expressing BCRP at 200 nM after 72 hrs by SRB assay; type: ADME, cell-based; settings: mcf-7 flv1000, 72 h, 0.2 µM
MCF7 [18] = test: Cytotoxicity against human MCF7 cells at 200 nM after 72 hrs by SRB assay; type: cell-based; settings: mcf7, 72 h, 0.2 µM
Homo sapiens = organism: Homo sapiens; test: Inhibition of p-glycoprotein (unknown origin) expressed in High five insect cell membranes assessed as ATP hydrolysis after 20 mins by colorimetric ATPase assay
[19] = target: T2, Broad substrate specificity ATP-binding cassette transporter ABCG2; test: Induction of BCRP (unknown origin) expressed in High five insect cell membranes assessed as ATP hydrolysis after 10 mins by colorimetric ATPase assay
[20] = Cytotoxicity against human LCC6 cells at 200 nM after 72 hrs by SRB assay; type: cell-based; settings: lcc6, 72 h, 0.2 µM
HepG2 [21] = test: Cytotoxicity against human HepG2 cells at 200 nM after 72 hrs by SRB assay; type: cell-based; settings: hepg2, 72 h, 0.2 µM
[22] = Cytotoxicity against human SW620/AD300 cells expressing p-glycoprotein at 200 nM after 72 hrs by SRB assay; type: cell-based; settings: sw-620, 72 h, 0.2 µM
HepG2 [23] = test: Potentiation of doxorubicin-induced cytotoxicity against human HepG2 cells at 200 nM after 72 hrs by SRB assay relative to control; type: functional
HepG2 [24] = test: Cytotoxicity against human HepG2 cells expressing p-glycoprotein at 200 nM after 72 hrs by SRB assay; type: cell-based; settings: hepg2, 72 h, 0.2 µM
SW-620 [25] = test: Potentiation of doxorubicin-induced cytotoxicity against human SW620 cells at 200 nM after 72 hrs by SRB assay relative to control; type: functional
SW-620 [26] = test: Cytotoxicity against human SW620 cells at 200 nM after 72 hrs by SRB assay; type: cell-based; settings: sw-620, 72 h, 0.2 µM
[27] = target: T1, ATP-dependent translocase ABCB1; test: Inhibition of p-glycoprotein in human HepG2 cells assessed as increase of doxorubicin-induced cytotoxicity at 200 nM after 72 hrs by SRB assay relative to control; type: cell-based; settings: hepg2, 72 h, 0.2 µM
[28] = target: T1, ATP-dependent translocase ABCB1; test: Inhibition of p-glycoprotein in human SW620/AD300 cells assessed as increase of doxorubicin-induced cytotoxicity at 200 nM after 72 hrs by SRB assay relative to control; type: cell-based; settings: sw-620, 72 h, 0.2 µM

Row | Structure (SMILES) | IC50 (HCT-116) [µM] | IC50 [1] [µM] | Activity (K562 [2]) | IC50 (SW-620 [3]) [µM] | inhibition (INH) [4] | Activity [5] | IC50 [6] [µM] | inhibition (INH) [7] | IC50 [8] [µM] | Activity [9] | fold change (FC) [10] | IC50 (Hepatocyte) [µM] | inhibition (INH) [11] | fold change (FC) [12] | fold change (FC) [13] | inhibition (INH) [14] | Activity (K562 [15]) | fold change (FC) (MCF7 [16]) | Activity [17] | Activity [20] | other results
1 | COc1cc2c(cc1OC)CN(CCc1ccc(NC(=O)c3ccccc3NS(=O)(=O)c3ccc(C(C)(C)C)cc3)cc1)CC2 | > 100 | > 100 | inactive | > 100 | Active | Not Active | > 100 | Not Active | > 100 | – | – | – | – | – | – | – | – | – | – | – | –
2 | COc1cc2c(cc1OC)CN(CCc1ccc(NC(=O)c3ccccc3NC(=O)/C=C/c3ccccc3)cc1)CC2 | > 100 | > 100 | 46.3% | > 100 | – | 118.6% | > 100 | Not Active | > 20 | Non-toxic | 1.6 | 100 | Active | 33 | 64 | Dose-dependent effect | Non-toxic | 1.5 | Non-toxic | Non-toxic | inhibition at 1 h, 0.5 µM (BCRP (ABCG2)): 60%; Activity (MCF7 [18]): Non-toxic; inhibition (Homo sapiens): Dose-dependent effect; Activity [19]: Active
3 | COc1cc2c(cc1OC)CN(CCc1ccc(NC(=O)c3ccccc3N(S(=O)(=O)c3ccccc3)S(=O)(=O)c3ccccc3)cc1)CC2 | > 100 | > 100 | – | > 100 | Active | – | > 100 | Not Active | > 5 | – | – | – | Active | – | – | Dose-dependent effect | Non-toxic | – | – | – | Activity (Hepatocyte): Non-toxic
4 | COc1cc2c(cc1OC)CN(CCc1ccc(NC(=O)c3cc(OC)c(OC)cc3NC(=O)c3cnc4ccccc4c3)cc1)CC2 [TARIQUIDAR] | 12.5 | 25 | – | 25 | – | – | 25 | Not Active | 1.28 | Non-toxic | 1.1 | 25 | – | 1.9 | 3.7 | – | – | 0.8 | Non-toxic | Non-toxic | Activity (HepG2 [21]): Non-toxic; Activity [22]: Non-toxic; fold change (FC) (HepG2 [23]): 0.23; Activity (HepG2 [24]): Non-toxic; fold change (FC) (SW-620 [25]): 0.57; Activity (SW-620 [26]): Non-toxic; Activity (MCF7 [18]): Non-toxic; fold change (FC) [27]: 0.32; fold change (FC) [28]: 1.85
5 | COc1cc2c(cc1OC)CN(CCc1ccc(NC(=O)c3ccccc3N(S(=O)(=O)c3ccc(Br)cc3)S(=O)(=O)c3ccc(Br)cc3)cc1)CC2 | > 100 | > 100 | 47% | > 100 | Active | – | > 100 | Not Active | > 5 | Non-toxic | 1.3 | – | Active | 36 | – | Dose-dependent effect | Non-toxic | – | – | Non-toxic | Activity (Hepatocyte): Non-toxic; inhibition (Homo sapiens): Dose-dependent effect
6 | COc1cc2c(cc1OC)CN(CCc1ccc(NC(=O)c3ccccc3NS(=O)(=O)c3ccc(C)cc3)cc1)CC2 | > 100 | > 100 | inactive | > 100 | – | Not Active | > 100 | Not Active | > 100 | – | – | – | – | – | – | – | – | – | – | – | –
